Results taken from patent publication US9676701B2, “Cyclopropylamine derivatives useful as LSD1 inhibitors” (Oryzon Genomics, S.A., priority 2010, dated 2017).
Structures can show the parent of a compound that is named as a salt.

What was measured:
MAO-A = MAO-A (Homo sapiens (Human), UniProt P21397); details: read-out: MAO-A (Ki)
MAO-B = MAO-B (Homo sapiens (Human), UniProt P27338); details: read-out: MAO-B (Ki)
[1] = target: Human recombinant LSD1 protein (Homo sapiens (Human), UniProt O60341); assay: biochemical

MAO-A, sequence (P21397 whole entry): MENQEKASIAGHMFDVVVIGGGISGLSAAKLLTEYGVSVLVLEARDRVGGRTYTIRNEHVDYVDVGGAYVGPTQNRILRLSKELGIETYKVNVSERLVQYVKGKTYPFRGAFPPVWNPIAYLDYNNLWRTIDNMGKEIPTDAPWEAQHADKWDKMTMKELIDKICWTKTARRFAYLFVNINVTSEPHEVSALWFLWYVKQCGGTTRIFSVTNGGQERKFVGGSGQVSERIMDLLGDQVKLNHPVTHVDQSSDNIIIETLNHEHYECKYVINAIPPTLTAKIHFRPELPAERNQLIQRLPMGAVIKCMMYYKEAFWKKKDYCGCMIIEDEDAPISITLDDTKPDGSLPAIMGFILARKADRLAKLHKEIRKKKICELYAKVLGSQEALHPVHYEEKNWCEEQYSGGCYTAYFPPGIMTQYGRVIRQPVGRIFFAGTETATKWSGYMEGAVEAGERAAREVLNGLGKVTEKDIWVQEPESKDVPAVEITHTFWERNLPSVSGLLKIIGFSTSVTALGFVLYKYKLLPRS
MAO-B, sequence (P27338 whole entry): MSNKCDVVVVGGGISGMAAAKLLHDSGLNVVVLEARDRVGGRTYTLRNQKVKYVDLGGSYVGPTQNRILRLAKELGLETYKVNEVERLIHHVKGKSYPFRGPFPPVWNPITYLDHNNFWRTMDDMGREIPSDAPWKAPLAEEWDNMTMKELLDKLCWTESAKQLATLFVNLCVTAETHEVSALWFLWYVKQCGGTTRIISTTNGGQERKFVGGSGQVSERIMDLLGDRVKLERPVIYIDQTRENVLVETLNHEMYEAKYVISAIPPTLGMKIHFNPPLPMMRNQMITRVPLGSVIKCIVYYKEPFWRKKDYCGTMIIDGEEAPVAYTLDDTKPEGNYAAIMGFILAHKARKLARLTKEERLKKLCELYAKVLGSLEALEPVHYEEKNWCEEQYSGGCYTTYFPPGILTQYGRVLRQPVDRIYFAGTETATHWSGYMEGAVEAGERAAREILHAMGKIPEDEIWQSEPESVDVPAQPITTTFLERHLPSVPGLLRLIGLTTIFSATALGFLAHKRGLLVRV

Ki (MAO-A) [nM]	Ki (MAO-B) [nM]	Ki [1] [nM]	Structure (SMILES)
1000 to 40000	1000 to 40000	100 to 1000	N[C@H]1C[C@@H]1c1ccc(-c2ccc(O)cc2)cc1 (relative stereo) [Example 3, 4′-((trans)-2-aminocyclopropyl)biphenyl-4-ol hydrochloride]
1000 to 40000	1000 to 40000	100 to 1000	COc1ccc(F)c(-c2ccc([C@H]3C[C@@H]3N)cn2)c1 (relative stereo) [Example 40, (trans)-2-(6-(2-fluoro-5-methoxyphenyl)pyridin-3-yl)cyclopropanamine hydrochloride]
1000 to 40000	1000 to 40000	100 to 1000	Cc1cccc(-c2ccc([C@H]3C[C@@H]3N)cn2)c1 (relative stereo) [Example 15, (Trans)-2-(6-m-tolylpyridin-3-yl)cyclopropanamine hydrochloride]
		1 to 100	CC(C)S(=O)(=O)Nc1cccc(-c2ccc([C@H]3C[C@@H]3N)cc2)c1 (relative stereo) [Example 69, N-(4′-((trans)-2-aminocyclopropyl)biphenyl-3-yl)propane-2-sulfonamide hydrochloride]
		1 to 100	N[C@H]1C[C@@H]1c1ccc(-c2ccc(F)c(O)c2)cc1 (relative stereo) [Example 66, 4′-((trans)-2-aminocyclopropyl)-4-fluorobiphenyl-3-ol hydrochloride]
1000 to 40000	1000 to 40000	100 to 1000	COc1cc(F)cc(-c2ccc([C@H]3C[C@@H]3N)cn2)c1 (relative stereo) [Example 39, (trans)-2-(6-(3-fluoro-5-methoxyphenyl)pyridin-3-yl)cyclopropanamine hydrochloride]
1000 to 40000	1000 to 40000	100 to 1000	CS(=O)(=O)Nc1cc(-c2ccc([C@H]3C[C@@H]3N)cn2)ccc1F (relative stereo) [Example 97, N-(5-(5-((trans)-2-aminocyclopropyl)pyridin-2-yl)-2-fluorophenyl)methanesulfonamide hydrochloride]
1000 to 40000	1000 to 40000	100 to 1000	COc1ccc(Cl)c(-c2ccc([C@H]3C[C@@H]3N)cn2)c1 (relative stereo) [Example 43, (trans)-2-(6-(2-chloro-5-methoxyphenyl)pyridin-3-yl)cyclopropanamine hydrochloride]
1000 to 40000	1000 to 40000	100 to 1000	N[C@H]1C[C@@H]1c1ccc(-c2cc(C(F)(F)F)ccc2Cl)nc1 (relative stereo) [Example 50, (trans)-2-(6-(2-chloro-5-(trifluoromethyl)phenyl)pyridin-3-yl)cyclopropanamine hydrochloride]
1000 to 40000	1000 to 40000	1 to 100	N[C@H]1C[C@@H]1c1ccc(-c2cc(O)cc(F)c2)nc1 (relative stereo) [Example 24, 3-(5-((trans)-2-aminocyclopropyl)pyridin-2-yl)-5-fluorophenol hydrochloride]
		100 to 1000	N[C@H]1C[C@@H]1c1ccc(-c2cccc(NS(=O)(=O)C(F)(F)F)c2)cc1 (relative stereo) [Example 103, N-(4′-((trans)-2-aminocyclopropyl)-[1,1′-biphenyl]-3-yl)-1,1,1-trifluoromethanesulfonamide hydrochloride]
1000 to 40000	1000 to 40000	100 to 1000	N[C@H]1C[C@@H]1c1ccc(-c2cccc(C(F)(F)F)c2)cc1 (relative stereo) [Example 1, (trans)-2-(3′-(trifluoromethyl)biphenyl-4-yl)cyclopropanamine hydrochloride]
		1 to 100	N[C@H]1C[C@@H]1c1ccc(-c2cccc(NS(=O)(=O)c3ccccc3)c2)cc1 (relative stereo) [Example 68, N-(4′-((trans)-2-aminocyclopropyl)biphenyl-3-yl)benzenesulfonamide hydrochloride]
1000 to 40000	1000 to 40000	1 to 100	CCS(=O)(=O)Nc1cccc(-c2ccc([C@H]3C[C@@H]3N)cn2)c1 (relative stereo) [Example 98, N-(3-(5-((trans)-2-aminocyclopropyl)pyridin-2-yl)phenyl)ethanesulfonamide hydrochloride]
1000 to 40000	1000 to 40000	100 to 1000	N[C@H]1C[C@@H]1c1ccc(-c2csc3ccccc23)nc1 (relative stereo) [Example 55, (trans)-2-(6-(benzo[b]thiophen-3-yl)pyridin-3-yl)cyclopropanamine hydrochloride]
1000 to 40000	1000 to 40000	1 to 100	N#Cc1ccc(-c2ccc([C@H]3C[C@@H]3N)cn2)s1 (relative stereo) [Example 56, 5-(5-((trans)-2-aminocyclopropyl)pyridin-2-yl)thiophene-2-carbonitrile hydrochloride]
1000 to 40000	1000 to 40000	1 to 100	N[C@H]1C[C@@H]1c1ccc(-c2ccc(F)c(O)c2)nc1 (relative stereo) [Example 23, 5-(5-((trans)-2-aminocyclopropyl)pyridin-2-yl)-2-fluorophenol hydrochloride]
1000 to 40000	1000 to 40000	1 to 100	N[C@H]1C[C@@H]1c1ccc(-c2ccc(Cl)s2)nc1 (relative stereo) [Example 31, (trans)-2-(6-(5-chlorothiophen-2-yl)pyridin-3-yl)cyclopropanamine hydrochloride]
		1 to 100	N[C@H]1C[C@@H]1c1ccc(-c2cc(O)cc(Cl)c2)cc1 (relative stereo) [Example 67, 4′-((trans)-2-aminocyclopropyl)-5-chlorobiphenyl-3-ol hydrochloride]
1000 to 40000	1000 to 40000	100 to 1000	CS(=O)(=O)Nc1ccccc1-c1ccc([C@H]2C[C@@H]2N)cn1 (relative stereo) [Example 71, N-(2-(5-((trans)-2-aminocyclopropyl)pyridin-2-yl)phenyl)methanesulfonamide hydrochloride]
1000 to 40000	1000 to 40000	1 to 100	CC(C)S(=O)(=O)Nc1cccc(-c2ccc([C@H]3C[C@@H]3N)cn2)c1 (relative stereo) [Example 65, N-(3-(5-((trans)-2-aminocyclopropyl)pyridin-2-yl)phenyl)propane-2-sulfonamide hydrochloride]
	1000 to 40000	1 to 100	N[C@H]1C[C@@H]1c1ccc(-c2cc(O)c(F)c(F)c2)nc1 (relative stereo) [Example 59, 5-(5-((trans)-2-aminocyclopropyl)pyridin-2-yl)-2,3-difluorophenol hydrochloride]

Structure (SMILES)	Ki (MAO-A) [nM]	Ki (MAO-B) [nM]	Ki [1] [nM]
N#Cc1ccccc1S(=O)(=O)Nc1cccc(-c2ncc([C@H]3C[C@@H]3N)s2)c1 (relative stereo) [Example 124, N-(3-(5-((trans)-2-aminocyclopropyl)thiazol-2-yl)phenyl)-2-cyanobenzenesulfonamide dihydrochloride]	1000 to 40000	1000 to 40000	1 to 100
N[C@H]1C[C@@H]1c1ccc(-c2cccc(O)c2)cc1 (relative stereo) [Example 4, 4′-((trans)-2-aminocyclopropyl)biphenyl-3-ol hydrochloride]	1000 to 40000	1000 to 40000	1 to 100
